One experiment deals with HMF (breast). The experiment in a line: Antiproliferative activity (MTT assay), HMF. Type of experiment: cell-based. The note with it: cells treated for 96 h, mean ± SD, read-out: Cell viability IC50, HMF (breast). The source says: (§1) The human ovarian carcinoma cisplatin-sensitive A2780 cells, cisplatin-resistant A2780cisR (a cisplatin-resistant variant of A2780 cells), human cervical carcinoma HeLa cells, human breast cancer MCF-7 cells and human colorectal carcinoma cells HCT-116 (for experiments performed at the Czech Academy of Sciences) were kindly supplied by Professor B. Keppler, University of Vienna (Austria). Human colon carcinoma cells expressing p53 (HCT116 p53^+/+) were a kind gift of Dr M. Brazdova, Institute of Biophysics, Brno (Czech Republic). […] These solutions were removed, dimethyl sulfoxide was added to each well, and the absorbance at 540 nm was read using a Thermo Scientific Multiskan EX microplate photometer. The IC50 values were determined from a plot of percentage cell survival against drug concentration (in μM). All assays were conducted in triplicate and the mean IC50 ± standard deviation was determined. page 43: 8. […] Cell survival was determined as the absorbance of treated cells minus the blank cell media, divided by the absorbance of the untreated control; this value was expressed as a percentage. The IC50 values were determined from a plot of percentage cell survival against drug concentration (µM). All assays were conducted in triplicate and the mean IC50 ± standard deviation was determined. […]

The subject of a further experiment is MRC-5 pd30 (lung). Nature of the experiment: Antiproliferative activity (MTT assay), MRC-5 pd30. The note with it: 72 h, mean ± SD, read-out: Cell viability IC50, MRC-5 pd30 (lung). Type of experiment: cell-based, human.
Description: as §1
(In general: Formazan colour is commonly taken as a measure of viable cells.)

A further experiment deals with HCT116 p53-/- (colon). The experiment in a line: Antiproliferative activity (MTT assay), HCT116 p53-/-. Type of experiment: cell-based, human.
Description: as §1

For the next experiment, the system named is WI-38 (lung). The experiment in a line: Antiproliferative activity (MTT assay), WI-38. Type of experiment: cell-based. The settings on record: cells treated for 96 h, mean ± SD, read-out: Cell viability IC50, WI-38 (lung).
Description: as §1

Experiment [1] has as its system HCT116 p53+/+ colon cancer cells. Nature of the experiment: Antiproliferative activity (MTT assay), HCT116 p53+/+. The settings on record: cells treated for 96 h, mean ± SD, read-out: Cell viability IC50, HCT116 p53+/+ (colon). Type of experiment: cell-based, human.
Description: as §1

For a further experiment, the system named is A2780cisR (ovarian). Nature of the experiment: Antiproliferative activity (MTT assay), A2780cisR. The note with it: 72 h, mean ± SD, read-out: Cell viability IC50, A2780cisR (ovarian). Type of experiment: cell-based, human.
Description: as §1

The test system of experiment [2] is ARPE-19 (non-cancerous) cells. Nature of the experiment: Antiproliferative activity (MTT assay), ARPE-19. Type of experiment: cell-based, human. The note with it: cells treated for 96 h, mean ± SD, read-out: Cell viability IC50, ARPE-19 (retinal).
Description: as §1

From article PMC6839601, “Discovery of selective, antimetastatic and anti-cancer stem cell metallohelices via post-assembly modification” (Chemical Science, 2019) come the findings set out here.

The structures appear in SMILES notation.

Regarding `N.N.[Cl][Pt][Cl]` [Cisplatin, cisplatin], the IC50 in the experiment on HMF (breast) was determined as 18 ± 2 µM; in the experiment with MRC-5 pd30 (lung) it was 12 ± 1 µM; in the experiment on HCT116 p53-/- (colon) (MTT, cells treated for 96 h, mean ± SD, read-out: Cell viability IC50, HCT116 p53-/- (colon)), 7.5 ± 0.7 µM; with WI-38 (lung), 2.2 ± 0.8 µM; in experiment [1], 3.3 ± 0.4 µM; in the experiment with A2780cisR (ovarian), 20 ± 3 µM. Moreover, the IC50 in experiment [2] amounted to 6.4 ± 1 µM. The “loss of activity towards HCT116 p53-/- cells relative to p53+/+ isogenic clones” value with HCT116 p53-/- (colon) (HCT116 p53-/- vs p53+/+ (Table 1)) is given as over 2 fold.
